Converted amounts (≈) assume the structure as drawn. Where a name gives a salt, the structure may show the parent alone.
Key:
Escherichia coli [1] = test: Antibacterial activity against Escherichia coli ATCC 35421 assessed as zone of inhibition at 5 mg/ml by agar well diffusion method; format: functional; conditions: read-out: DIZ
Candida albicans [2] = test: Antifungal activity against Candida albicans A01 assessed as zone of inhibition at 5 mg/ml by agar well diffusion method; format: functional; conditions: read-out: DIZ
Staphylococcus aureus [3] = test: Antibacterial activity against Staphylococcus aureus 209P assessed as zone of inhibition at 1 mg/ml by agar well diffusion method; format: functional; conditions: read-out: DIZ
Escherichia coli [4] = test: Antibacterial activity against Escherichia coli ATCC 35421 assessed as zone of inhibition at 1 mg/ml by agar well diffusion method; format: functional; conditions: read-out: DIZ
Candida albicans [5] = test: Antifungal activity against Candida albicans A01 assessed as zone of inhibition at 1 mg/ml by agar well diffusion method; format: functional; conditions: read-out: DIZ
Staphylococcus aureus [6] = test: Antibacterial activity against Staphylococcus aureus 209P assessed as zone of inhibition at 5 mg/ml by agar well diffusion method; format: functional; conditions: read-out: DIZ
Pseudomonas aeruginosa = test: Antibacterial activity against Pseudomonas aeruginosa M5 after 24 to 48 hrs by macro-broth dilution method; format: functional
Escherichia coli [7] = test: Antibacterial activity against Escherichia coli ATCC 20732 after 24 to 48 hrs by macro-broth dilution method; format: functional
Escherichia coli [8] = test: Antibacterial activity against Escherichia coli ATCC 35421 after 24 to 48 hrs by macro-broth dilution method; format: functional
Staphylococcus aureus [9] = test: Antibacterial activity against Staphylococcus aureus 209P after 24 to 48 hrs by macro-broth dilution method; format: functional
Staphylococcus aureus [10] = test: Antibacterial activity against methicillin-resistant Staphylococcus aureus 3710 after 24 to 48 hrs by macro-broth dilution method; format: functional
HeLa [11] = test: Cytotoxicity against human HeLa cells assessed as cell growth at 10^-7 M after 48 hrs by SRB assay relative to control; format: functional; conditions: read-out: Activity
HeLa [12] = test: Cytotoxicity against human HeLa cells assessed as reduction in cell viability after 48 hrs by SRB assay; format: functional, cell-based
[13] = test system: Staphylococcus epidermidis; test: Antibacterial activity against Staphylococcus epidermidis 209E after 24 to 48 hrs by macro-broth dilution method; format: functional
Staphylococcus aureus [14] = test: Antibacterial activity against methicillin-resistant Staphylococcus aureus ATCC 33591 after 24 to 48 hrs by macro-broth dilution method; format: functional
HeLa [15] = test: Growth inhibition of human HeLa cells after 48 hrs by SRB assay; format: functional
HeLa [16] = test: Cytotoxicity against human HeLa cells assessed as cell growth at 10^-4 M after 48 hrs by SRB assay relative to control; format: functional; conditions: read-out: Activity
HeLa [17] = test: Cytotoxicity against human HeLa cells assessed as cell growth at 10^-5 M after 48 hrs by SRB assay relative to control; format: functional; conditions: read-out: Activity
HeLa [18] = test: Cytotoxicity against human HeLa cells assessed as cell growth at 10^-6 M after 48 hrs by SRB assay relative to control; format: functional; conditions: read-out: Activity

Molecule	zone of inhibition at 5000 µg/mL (Escherichia coli [1])	zone of inhibition at 5000 µg/mL (Candida albicans [2])	zone of inhibition at 1000 µg/mL (Staphylococcus aureus [3])	zone of inhibition at 1000 µg/mL (Escherichia coli [4])	zone of inhibition at 1000 µg/mL (Candida albicans [5])	zone of inhibition at 5000 µg/mL (Staphylococcus aureus [6])	also measured
CCOc1ccc2sc(S(C)(=O)=O)nc2c1[N+](=O)[O-]	≤ 7 mm	≤ 7 mm	≤ 7 mm	≤ 7 mm	≤ 7 mm	8 mm	–
CS(=O)(=O)c1nc2cc(OCc3ccccc3)ccc2s1	≤ 7 mm	≤ 7 mm	8 mm	≤ 7 mm	≤ 7 mm	≤ 7 mm	–
CCNS(=O)(=O)c1c(OCC)ccc2sc(S(C)(=O)=O)nc12	≤ 7 mm	≤ 7 mm	≤ 7 mm	≤ 7 mm	≤ 7 mm	≤ 7 mm	–
CCCNS(=O)(=O)c1c(OCC)ccc2sc(S(C)(=O)=O)nc12	≤ 7 mm	≤ 7 mm	≤ 7 mm	≤ 7 mm	≤ 7 mm	≤ 7 mm	–
GENTAMICIN	–	–	–	–	–	–	MIC (Pseudomonas aeruginosa): 2 µg/mL; MIC (Escherichia coli [7]): 1 µg/mL; MIC (Escherichia coli [8]): 1 µg/mL
CCOc1ccc2sc(S(C)(=O)=O)nc2c1S(=O)(=O)Nc1ccc(Cl)c(Cl)c1	≤ 7 mm	≤ 7 mm	≤ 7 mm	≤ 7 mm	≤ 7 mm	≤ 7 mm	–
CCOc1ccc2sc(S(C)(=O)=O)nc2c1NC(=O)CCl	≤ 7 mm	≤ 7 mm	≤ 7 mm	≤ 7 mm	≤ 7 mm	≤ 7 mm	–
CCOc1ccc2sc(S(C)(=O)=O)nc2c1S(=O)(=O)Cl	≤ 7 mm	≤ 7 mm	≤ 7 mm	≤ 7 mm	≤ 7 mm	≤ 7 mm	–
CCOc1ccc2sc(S(C)(=O)=O)nc2c1S(=O)(=O)Nc1ccc([N+](=O)[O-])cc1	10 mm	≤ 7 mm	14 mm	9 mm	≤ 7 mm	16 mm	MIC (Staphylococcus aureus [9]): 10 µg/mL (≈ 21.9 µM); MIC (Staphylococcus aureus [10]): 10 µg/mL (≈ 21.9 µM); growth at 0.1 µM (HeLa [11]): 98.3%; Activity (HeLa [12]): Dose-dependent effect; MIC [13]: 10 µg/mL (≈ 21.9 µM); MIC (Pseudomonas aeruginosa): 50 µg/mL (≈ 109 µM); MIC (Escherichia coli [7]): 20 µg/mL (≈ 43.7 µM); MIC (Staphylococcus aureus [14]): 10 µg/mL (≈ 21.9 µM); GI50 (HeLa [15]): 0.22 µM; LC50 (HeLa [15]): 81.5 µM; TGI (HeLa [15]): 40.8 µM; growth inhibition (GI) (HeLa [15]): Dose-dependent effect; MIC (Escherichia coli [8]): 20 µg/mL (≈ 43.7 µM); growth at 100 µM (HeLa [16]): -67.8%; growth at 10 µM (HeLa [17]): -12.3%; growth at 1 µM (HeLa [18]): 46.2%
CC(=O)NC[C@H]1CN(c2ccc(N3CCOCC3)c(F)c2)C(=O)O1 [LINEZOLID]	–	–	–	–	–	–	MIC (Staphylococcus aureus [9]): 1 µg/mL (≈ 2.96 µM); MIC [13]: 1 µg/mL (≈ 2.96 µM)
CCOc1ccc2sc(S(C)(=O)=O)nc2c1NC(=O)CNCN1CCN(C(=O)OC(C)(C)C)CC1	≤ 7 mm	≤ 7 mm	≤ 7 mm	≤ 7 mm	≤ 7 mm	8 mm	–
CCOc1ccc2sc(Cl)nc2c1	≤ 7 mm	≤ 7 mm	≤ 7 mm	≤ 7 mm	≤ 7 mm	≤ 7 mm	–
CCOc1ccc2sc(S(C)(=O)=O)nc2c1S(=O)(=O)N1CCO[C@H](COc2ccccc2)C1	≤ 7 mm	≤ 7 mm	≤ 7 mm	≤ 7 mm	≤ 7 mm	9 mm	–
CCOc1ccc2sc(S(C)(=O)=O)nc2c1S(=O)(=O)O	≤ 7 mm	9 mm	≤ 7 mm	≤ 7 mm	≤ 7 mm	≤ 7 mm	–
CCOc1ccc2sc(S(C)(=O)=O)nc2c1	≤ 7 mm	≤ 7 mm	≤ 7 mm	≤ 7 mm	≤ 7 mm	8 mm	–
O=C(O)c1cn(C2CC2)c2cc(N3CCNCC3)c(F)cc2c1=O [CIPROFLOXACIN]	–	–	–	–	–	–	MIC (Staphylococcus aureus [9]): 8 µg/mL (≈ 24.1 µM); MIC [13]: 8 µg/mL (≈ 24.1 µM)
CCOc1ccc2sc(S(C)(=O)=O)nc2c1S(=O)(=O)NC(C)C	≤ 7 mm	≤ 7 mm	≤ 7 mm	≤ 7 mm	≤ 7 mm	≤ 7 mm	–
CCOc1ccc2sc(S(C)(=O)=O)nc2c1S(=O)(=O)Nc1ccc(Br)cc1	10 mm	≤ 7 mm	9 mm	9 mm	≤ 7 mm	11 mm	growth at 0.1 µM (HeLa [11]): 95.9%; Activity (HeLa [12]): Dose-dependent effect; GI50 (HeLa [15]): 6.8 µM; LC50 (HeLa [15]): 74.5 µM; TGI (HeLa [15]): 40.6 µM; growth inhibition (GI) (HeLa [15]): Dose-dependent effect; growth at 100 µM (HeLa [16]): -82.3%; growth at 10 µM (HeLa [17]): -11.2%; growth at 1 µM (HeLa [18]): 73.7%
COc1cccc2c1C(=O)c1c(O)c3c(c(O)c1C2=O)C[C@@](O)(C(=O)CO)C[C@@H]3O[C@H]1C[C@H](N)[C@H](O)[C@H](C)O1 [DOXORUBICIN HYDROCHLORIDE]	–	–	–	–	–	–	growth at 0.1 µM (HeLa [11]): -76.8%; GI50 (HeLa [15]): < 0.1 µM; TGI (HeLa [15]): < 0.1 µM; growth at 100 µM (HeLa [16]): -84.6%; growth at 10 µM (HeLa [17]): -84.1%; growth at 1 µM (HeLa [18]): -82.9%
CCOc1ccc2sc(S(C)(=O)=O)nc2c1NC(=O)CNC(C)C	≤ 7 mm	≤ 7 mm	≤ 7 mm	≤ 7 mm	≤ 7 mm	≤ 7 mm	–
CCOc1ccc2sc(S(C)(=O)=O)nc2c1S(=O)(=O)NCc1ccccc1	≤ 7 mm	9 mm	≤ 7 mm	≤ 7 mm	≤ 7 mm	≤ 7 mm	–
CCOc1ccc2sc(S(C)(=O)=O)nc2c1S(=O)(=O)NC1CC1	≤ 7 mm	≤ 7 mm	≤ 7 mm	≤ 7 mm	≤ 7 mm	≤ 7 mm	–
CCOc1ccc2sc(S(C)(=O)=O)nc2c1NC(=O)CNCN1CCCC1	≤ 7 mm	≤ 7 mm	≤ 7 mm	≤ 7 mm	≤ 7 mm	≤ 7 mm	–
CS(=O)(=O)c1nc2cc(OCc3ccc(-c4ccccc4)cc3)ccc2s1	≤ 7 mm	≤ 7 mm	≤ 7 mm	≤ 7 mm	≤ 7 mm	≤ 7 mm	–
CS(=O)(=O)c1nc2cc(O)ccc2s1	≤ 7 mm	≤ 7 mm	≤ 7 mm	≤ 7 mm	≤ 7 mm	≤ 7 mm	–
CCOc1ccc2sc(S(C)(=O)=O)nc2c1NC(=O)CN1CCOCC1	≤ 7 mm	≤ 7 mm	9 mm	≤ 7 mm	≤ 7 mm	≤ 7 mm	–
CCOc1ccc2sc(S(C)(=O)=O)nc2c1S(=O)(=O)NC	≤ 7 mm	≤ 7 mm	≤ 7 mm	≤ 7 mm	≤ 7 mm	≤ 7 mm	–
CS(=O)(=O)c1nc2cc(OCc3ccc(OCc4ccccc4)cc3)ccc2s1	≤ 7 mm	≤ 7 mm	≤ 7 mm	≤ 7 mm	≤ 7 mm	≤ 7 mm	–
